This note sets out measurements from patent US4971985A, “Pyridylketoxime ether compound and pharmaceutical composition containing it” (Kaken Pharmaceutical Co., Ltd., priority 1988, dated 1990).

One assay deals with erythrocytes. Put plainly: Activity to improve the deformation of erythrocytes (time to pass through millipore filter). Type of assay: cell-based, male New Zealand rabbit. To be noted: rabbit washed erythrocytes treated with Ca^2+ and ionofore A-23187; 5 μm millipore filter. Here is the method:
A suspension of washed erythrocytes was prepared from a blood collected by heart puncture from a male New Zealand rabbit having a body weight of about 3 kg and having Heparin added thereto, by using a Krebs-Henseleit solution containing 20 mM of HEPES. […] As a control drug, W-7 was used.

For assay [1], the target named is T1, bovine cerebral calmodulin (Bos taurus, UniProt P62157).
T1 construct: bovine cerebral calmodulin; from tissue; host or cells: bovine brain (calmodulin); bovine myocardium (PDE)
The assay is described as follows: Calmodulin antagonism (inhibition of 5'-AMP formation by calmodulin-stimulated c-AMP-PDE). Type of assay: biochemical. The text has this: As a control drug, W-7 [N-(6-aminohexyl)-5-chloro-1-naphthalenesulfonamide]was used.

A further assay deals with T2, Ca^2 + Channel (Cavia porcellus, UniProt O35505).
T2 construct: The cecum string of a male Hartley guinea pig; from tissue; host or cells: isolated cecum string (taenia caeci) of male Hartley guinea pig
T2 sequence (O35505 whole entry): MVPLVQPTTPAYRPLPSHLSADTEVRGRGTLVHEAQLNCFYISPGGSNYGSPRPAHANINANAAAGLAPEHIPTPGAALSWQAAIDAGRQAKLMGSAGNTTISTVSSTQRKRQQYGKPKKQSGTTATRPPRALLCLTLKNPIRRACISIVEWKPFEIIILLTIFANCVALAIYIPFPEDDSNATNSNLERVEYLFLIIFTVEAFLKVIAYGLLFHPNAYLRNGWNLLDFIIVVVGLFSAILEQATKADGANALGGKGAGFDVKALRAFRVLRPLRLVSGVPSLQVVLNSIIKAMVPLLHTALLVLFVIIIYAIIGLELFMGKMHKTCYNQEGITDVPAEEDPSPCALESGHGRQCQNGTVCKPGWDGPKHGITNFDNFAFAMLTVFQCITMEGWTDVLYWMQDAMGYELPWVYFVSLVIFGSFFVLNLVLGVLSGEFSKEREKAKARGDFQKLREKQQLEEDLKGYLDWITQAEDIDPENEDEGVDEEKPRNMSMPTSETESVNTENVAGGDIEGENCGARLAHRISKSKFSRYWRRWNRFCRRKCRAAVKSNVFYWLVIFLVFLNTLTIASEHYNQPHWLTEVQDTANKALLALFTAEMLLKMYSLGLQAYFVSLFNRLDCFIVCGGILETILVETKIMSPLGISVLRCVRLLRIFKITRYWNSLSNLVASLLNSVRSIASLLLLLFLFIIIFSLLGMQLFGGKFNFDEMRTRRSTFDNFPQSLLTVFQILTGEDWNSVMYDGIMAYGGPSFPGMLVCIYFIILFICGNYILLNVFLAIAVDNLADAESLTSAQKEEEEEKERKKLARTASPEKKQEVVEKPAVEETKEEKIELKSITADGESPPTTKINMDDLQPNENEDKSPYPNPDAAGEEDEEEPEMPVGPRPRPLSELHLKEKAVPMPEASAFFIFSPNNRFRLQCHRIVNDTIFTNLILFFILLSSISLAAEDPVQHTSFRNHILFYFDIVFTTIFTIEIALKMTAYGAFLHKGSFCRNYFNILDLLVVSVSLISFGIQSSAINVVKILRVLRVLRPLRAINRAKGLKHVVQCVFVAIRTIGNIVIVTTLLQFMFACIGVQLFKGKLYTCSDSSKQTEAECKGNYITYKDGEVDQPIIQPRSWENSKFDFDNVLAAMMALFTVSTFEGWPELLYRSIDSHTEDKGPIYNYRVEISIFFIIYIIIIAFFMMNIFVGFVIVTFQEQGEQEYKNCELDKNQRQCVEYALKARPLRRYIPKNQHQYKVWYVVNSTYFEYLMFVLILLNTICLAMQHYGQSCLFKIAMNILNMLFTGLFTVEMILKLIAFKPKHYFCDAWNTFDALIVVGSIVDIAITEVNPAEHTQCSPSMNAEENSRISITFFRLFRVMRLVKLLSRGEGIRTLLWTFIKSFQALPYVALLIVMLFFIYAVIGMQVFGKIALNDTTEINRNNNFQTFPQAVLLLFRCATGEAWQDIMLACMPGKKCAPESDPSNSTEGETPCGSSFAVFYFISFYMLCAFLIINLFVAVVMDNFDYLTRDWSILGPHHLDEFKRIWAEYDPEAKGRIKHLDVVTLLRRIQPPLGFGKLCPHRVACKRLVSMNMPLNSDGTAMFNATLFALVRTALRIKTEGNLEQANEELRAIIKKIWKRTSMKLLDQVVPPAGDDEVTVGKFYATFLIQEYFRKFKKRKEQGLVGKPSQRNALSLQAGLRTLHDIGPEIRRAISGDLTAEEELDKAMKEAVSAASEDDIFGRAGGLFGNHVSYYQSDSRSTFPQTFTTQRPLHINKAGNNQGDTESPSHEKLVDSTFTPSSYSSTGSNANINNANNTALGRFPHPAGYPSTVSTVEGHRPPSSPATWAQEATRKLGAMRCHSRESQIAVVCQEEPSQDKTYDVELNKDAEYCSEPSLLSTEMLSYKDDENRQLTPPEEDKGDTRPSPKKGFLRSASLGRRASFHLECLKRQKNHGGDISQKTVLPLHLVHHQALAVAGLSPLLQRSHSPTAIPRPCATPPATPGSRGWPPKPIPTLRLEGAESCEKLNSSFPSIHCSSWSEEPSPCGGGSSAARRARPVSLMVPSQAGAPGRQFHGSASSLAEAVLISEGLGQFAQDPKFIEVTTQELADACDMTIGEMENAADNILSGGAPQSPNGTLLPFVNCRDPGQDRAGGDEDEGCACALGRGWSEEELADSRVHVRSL
Put plainly: Calcium channel antagonism (isolated guinea pig cecum string, calcium chloride concentration reaction curve). Type of assay: cell-based, male Hartley guinea pig. The settings on record: high potassium Krebs solution, 32° C, pretreatment 30 minutes, read-out: Ca^2 + Channel antagonism (pA2) (converted). Here is the method: The cecum string of a male Hartley guinea pig having a body weight of 350 g was taken out, and while air was supplied,.it was hanged with a load of 0.5 g in a high potassium Krebs solution bath (32° C) having calcium removed. Calcium chloride was accumulatively added, and the reaction was recorded by means of an isotonic tranduser (manufactured by Nippon Koden K. K.) to obtain a constant standard concentration reaction curve.
On the other hand, pretreatment with a compound of the present invention was conducted for 30 minutes, and then calcium chloride was added to the reaction bath, and from concetration reaction curve thereby obtained, pA2 was obtained.

The mark [2] stands for this setting: 50 m units bovine cerebral calmodulin, 0.1 mM Ca^2+, 1 μM c-AMP, 0.875 m units bovine myocardial c-AMP-PDE, read-out: Calmodulin antagonism IC50.

Where a name gives a salt, the structure may show the parent alone. Read-outs that look alike come from different tables or passages of the source.

Consider `CNc1ccc2oc(C[C@H]3O[C@@]4(CC[C@H]3C)O[C@H]([C@H](C)C(=O)c3ccc[nH]3)[C@H](C)C[C@H]4C)nc2c1C(=O)O` [Calcium salt of A 23187, reference compound], for which the “Activity to improve the deformation of erythrocytes [pass through time (sec.)]” value (shortened to “Activity to improve the deformation”) with erythrocytes was found to be 39 s.

Regarding `c1ccc(CCON=C(c2ccccc2)c2cccnc2)cc1` [Compound 1, O-(2-phenylethyl)-phenyl-3-pyridylketoxime], the IC50 (as a rule, the concentration needed to halve the response being measured) in assay [1] (setting [2]) worked out at 3.8 µM. Further, the Kb at Ca^2 + Channel is 0.275 µM. For the same molecule, in the assay with erythrocytes, the “Activity to improve the deformation” value is 12 s.

For `COc1ccc(CON=C(c2ccccc2)c2ccccn2)cc1OC` [Compound 13, O-(3,4-dimethoxybenzyl)-phenyl-2-pyridylketoxime], on Ca^2 + Channel, the Kb was 0.148 µM. The “Activity to improve the deformation” value with erythrocytes was 16 s.

`COc1ccc(CON=C(c2ccccc2)c2cccnc2)cc1OC` [Compound 14, O-(3,4-dimethoxybenzyl)-phenyl-3-pyridiylketoxime]: the IC50 in assay [1] (setting [2]) stood at 8 µM. For the same molecule, the Kb on Ca^2 + Channel is 0.437 µM. In addition, in the assay on erythrocytes, the “Activity to improve the deformation” value was found to be 15 s.

`c1ccc(C(=NOCc2cccc3ccccc23)c2cccnc2)cc1` [Compound 20, O-(1-naphthylmethyl)-phenyl-3-pyridylketoxime]: the Kb at Ca^2 + Channel is 0.525 µM. Moreover, in the assay on erythrocytes, the “Activity to improve the deformation” value turned out to be 20 s.

For the molecule `c1ccc(OCCON=C(c2ccccc2)c2cccnc2)cc1` [Compound 26, O-[(2-phenoxy)ethyl]-phenyl-3-pyridylketoxime], the IC50 in assay [1] (setting [2]) worked out at 10 µM. Moreover, on Ca^2 + Channel, the Kb was 0.234 µM. Besides, the “Activity to improve the deformation” value in the assay on erythrocytes stood at 18 s.

For `Cc1ccccc1CCON=C(c1ccccc1)c1cccnc1` [Compound 43, O-[2-(2-methylphenyl)ethyl]-phenyl-3-pyridylketoxime], the IC50 in assay [1] (setting [2]) was 4.1 µM. The Kb at Ca^2 + Channel is 0.479 µM. The “Activity to improve the deformation” value in the assay on erythrocytes was 14 s.

For the molecule `Clc1ccccc1CCON=C(c1ccccc1)c1cccnc1` [Compound 46], the IC50 in assay [1] (setting [2]) came to 8.8 µM. Further, the “Activity to improve the deformation” value with erythrocytes worked out at 18 s.

`Clc1cccc(CCON=C(c2ccccc2)c2cccnc2)c1` [Compound 47]: the IC50 in assay [1] (setting [2]) is 6.3 µM. Moreover, the “Activity to improve the deformation” value with erythrocytes is 15 s.

`Clc1ccc(C(=NOCCc2ccccc2)c2cccnc2)cc1` [Compound 57] yielded a concentration for half-maximal inhibition (IC50) in assay [1] of 9.5 µM. The “Activity to improve the deformation” value with erythrocytes was determined as 20 s.

On to `Clc1ccccc1C(=NOCCc1ccccc1)c1cccnc1` [Compound 58], for which the IC50 in assay [1] was determined as 3.5 µM. In addition, the “Activity to improve the deformation” value with erythrocytes stood at 12 s.

Regarding `Cc1ccc(C)c(C(=NOCCc2ccccc2)c2cccnc2)c1` [Compound 62], the IC50 in assay [1] (setting [2]) turned out to be 8 µM. Besides, on Ca^2 + Channel, the Kb is 0.933 µM. The “Activity to improve the deformation” value in the assay on erythrocytes was 18 s.

`Fc1cccc(C(=NOCCc2ccccc2)c2cccnc2)c1` [Compound 63]: the IC50 in assay [1] (setting [2]) was 5 µM. At Ca^2 + Channel, the Kb was 0.603 µM. In the assay on erythrocytes, the “Activity to improve the deformation” value is 18 s.

Consider `FC(F)(F)c1cccc(C(=NOCCc2ccccc2)c2cccnc2)c1` [Compound 64], for which the IC50 in assay [1] (setting [2]) amounted to 6.5 µM. For the same molecule, the Kb at Ca^2 + Channel is 0.871 µM. In the assay with erythrocytes, the “Activity to improve the deformation” value turned out to be 16 s.

As for `O=[N+]([O-])c1cccc(C(=NOCCc2ccccc2)c2cccnc2)c1` [Compound 65], the Kb at Ca^2 + Channel was 0.692 µM. Further, in the assay on erythrocytes, the “Activity to improve the deformation” value was found to be 18 s.

For `c1ccc(CCON=C(c2cccnc2)c2cccs2)cc1` [Compound 66], the Kb on Ca^2 + Channel was 0.525 µM. In addition, in the assay with erythrocytes, the “Activity to improve the deformation” value turned out to be 17 s.

Consider `NCCCCCCNS(=O)(=O)c1cccc2c(Cl)cccc12` [Compound W-7, N-(6-aminohexyl)-5-chloro-1-naphthalenesulfonamide, reference compound], for which the “Activity to improve the deformation” value in the assay with erythrocytes was 25 s.
